Experimental data taken from patent US20260215428A1, “WEED CONTROL METHOD” (SYNGENTA CROP PROTECTION AG, priority 2023, published 2026).

Tested on: Lolium multiflorum
Assay: Further glasshouse test versus other ACCase-inhibiting herbicides, Table B2-1
Assay type: in vivo
Settings: 21 days after application
Source text: Further tests were employed to test the efficacy of a compound of Formula I versus other ACCase-inhibiting herbicides. The five main targets were Lolium multiflorum, Eleusine indica, Digitaria insularis, Sorghum halepense and Echinochloa crus-galli. Collectively, the populations contained all the major target-site resistance mutations affecting ACCase herbicides. Two L. multiflorum (LM-NTSR-1 and LM-NTSR-2) and one E. crus-galli (ECG-NTSR-1) populations were characterised exclusively by non-target-site resistance (“NTSR”). The target-site resistant L. multiflorum and E. indication populations were 100% homozygous for different ACCase mutations whilst the D. insularis, S. halepense and E. crus-galli samples contained a mixture of homozygous wild and mutant individuals at different genotypic frequencies. Additional underlying NTSR cannot be ruled out in the populations characterised by target-site resistance.
Around 50 seeds of each of the 24 weed populations were sown in 12-cm pots containing a mixture of peat and compost in a 1:1 ratio. The pots were watered, fertilised and kept in controlled glasshouse conditions set at 24° C./16 hr day, 18° C. night, 65% relative humidity, and a photon flux density of approximately 250 μmol quanta m^−2 s^−1 for Lolium multiflorum. The E. indica, D. insularis, S. halepense and E. crus-galli plants were kept in a separate glasshouse bay characterised by a 17 H photoperiod of 180 μmol m^−2 s^−1 with temperatures of 25° C. day and 19° C. night and 65% relative humidity. When the plants were at the two to four-leaf stage, they were treated with the various ACCase-inhibiting herbicides at 0, 15, 30, 60, 120 and 240 g ai ha^−1 in a spray cabinet mounted with a single mobile Teejet flat fan nozzle (11002VS) calibrated to deliver 200 L ha^−1 at 200 kPa. The L. multiflorum populations were treated by a compound of Formula Ic, clodinafop-propargyl, pinoxaden, cycloxydim and clethodim and the warm season grass weeds E. indica, D. insularis, S. halepense and E. crus-galli were sprayed with a Compound Ic and the commonly employed haloxyfop-methyl and clethodim. Three replicate pots were used per population. Plants were assessed for visual damage compared to the untreated control 21 days after application (0=0% damage; 100=100% damage).

[1] = population LM-NTSR-1 (non-target-site resistance), 15 g/ha
[2] = population LM-NTSR-1 (non-target-site resistance), 30 g/ha
[3] = population LM-NTSR-1 (non-target-site resistance), 60 g/ha
[4] = population LM-NTSR-1 (non-target-site resistance), 120 g/ha
[5] = population LM-NTSR-1 (non-target-site resistance), 240 g/ha
[6] = population LM-NTSR-2 (non-target-site resistance), 15 g/ha
[7] = population LM-NTSR-2 (non-target-site resistance), 30 g/ha
[8] = population LM-NTSR-2 (non-target-site resistance), 60 g/ha
[9] = population LM-NTSR-2 (non-target-site resistance), 120 g/ha
[10] = population LM-NTSR-2 (non-target-site resistance), 240 g/ha

CCc1cc(C)cc(CC)c1-c1c(OC(=O)C(C)(C)C)n2n(c1=O)CCOCC2 [Pinoxaden, pinoxaden]
visual damage (biotype C2088R, 15 g/ha): 0%
visual damage (biotype C2088R, 30 g/ha): 0%
visual damage (biotype C2088R, 60 g/ha): 0%
visual damage (biotype C2088R, 120 g/ha): 3%
visual damage (biotype C2088R, 240 g/ha): 30%
visual damage (biotype D2078G, 15 g/ha): 3%
visual damage (biotype D2078G, 30 g/ha): 3%
visual damage (biotype D2078G, 60 g/ha): 10%
visual damage (biotype D2078G, 120 g/ha): 45%
visual damage (biotype D2078G, 240 g/ha): 90%
visual damage (biotype I1781L, 15 g/ha): 7%
visual damage (biotype I1781L, 30 g/ha): 7%
visual damage (biotype I1781L, 60 g/ha): 27%
visual damage (biotype I1781L, 120 g/ha): 73%
visual damage (biotype I1781L, 240 g/ha): 98%
visual damage (biotype Sensitive, 15 g/ha): 100%
visual damage (biotype Sensitive, 30 g/ha): 100%
visual damage (biotype Sensitive, 60 g/ha): 100%
visual damage (biotype Sensitive, 120 g/ha): 100%
visual damage (biotype Sensitive, 240 g/ha): 100%
visual damage (biotype W1999S, 15 g/ha): 0%
visual damage (biotype W1999S, 30 g/ha): 0%
visual damage (biotype W1999S, 60 g/ha): 0%
visual damage (biotype W1999S, 120 g/ha): 7%
visual damage (biotype W1999S, 240 g/ha): 33%
visual damage (biotype W2027C, 15 g/ha): 0%
visual damage (biotype W2027C, 30 g/ha): 10%
visual damage (biotype W2027C, 60 g/ha): 62%
visual damage (biotype W2027C, 120 g/ha): 93%
visual damage (biotype W2027C, 240 g/ha): 100%
visual damage [1]: 30%
visual damage [2]: 85%
visual damage [3]: 97%
visual damage [4]: 100%
visual damage [5]: 100%
visual damage [6]: 0%
visual damage [7]: 0%
visual damage [8]: 0%
visual damage [9]: 65%
visual damage [10]: 53%

C#CCOC(=O)[C@@H](C)Oc1ccc(Oc2ncc(Cl)cc2F)cc1 [Clodinafop-propargyl, clodinafop-propargyl]
visual damage (biotype C2088R, 15 g/ha): 0%
visual damage (biotype C2088R, 30 g/ha): 0%
visual damage (biotype C2088R, 60 g/ha): 0%
visual damage (biotype C2088R, 120 g/ha): 0%
visual damage (biotype C2088R, 240 g/ha): 7%
visual damage (biotype D2078G, 15 g/ha): 0%
visual damage (biotype D2078G, 30 g/ha): 0%
visual damage (biotype D2078G, 60 g/ha): 0%
visual damage (biotype D2078G, 120 g/ha): 0%
visual damage (biotype D2078G, 240 g/ha): 0%
visual damage (biotype I1781L, 15 g/ha): 7%
visual damage (biotype I1781L, 30 g/ha): 7%
visual damage (biotype I1781L, 60 g/ha): 7%
visual damage (biotype I1781L, 120 g/ha): 10%
visual damage (biotype I1781L, 240 g/ha): 33%
visual damage (biotype Sensitive, 15 g/ha): 67%
visual damage (biotype Sensitive, 30 g/ha): 98%
visual damage (biotype Sensitive, 60 g/ha): 100%
visual damage (biotype Sensitive, 120 g/ha): 100%
visual damage (biotype Sensitive, 240 g/ha): 100%
visual damage (biotype W1999S, 15 g/ha): 0%
visual damage (biotype W1999S, 30 g/ha): 0%
visual damage (biotype W1999S, 60 g/ha): 0%
visual damage (biotype W1999S, 120 g/ha): 0%
visual damage (biotype W1999S, 240 g/ha): 0%
visual damage (biotype W2027C, 15 g/ha): 0%
visual damage (biotype W2027C, 30 g/ha): 0%
visual damage (biotype W2027C, 60 g/ha): 0%
visual damage (biotype W2027C, 120 g/ha): 0%
visual damage (biotype W2027C, 240 g/ha): 0%
visual damage [1]: 0%
visual damage [2]: 0%
visual damage [3]: 0%
visual damage [4]: 27%
visual damage [5]: 52%
visual damage [6]: 0%
visual damage [7]: 0%
visual damage [8]: 0%
visual damage [9]: 0%
visual damage [10]: 0%
